Source: patent US20170348258A1, “3-Amino Benzamide Derivative Serving As B-Lactam Auxiliary Antibiotic, Preparation Method and Use Thereof” (THE HONG KONG POLYTECHNIC UNIVERSITY, priority 2014, published 2017)
In brackets after ≈: the same amount, converted by molar mass.

Columns and labels:
B. subtilis 168 = assay: Antibacterial susceptibility test (MIC, microbroth dilution); type: cell-based; conditions: Bacillus subtilis, 168; 18 hours at 37° C., >90% inhibition of bacterial growth; read-out: MIC, BS 168
Description: (§1) The bacterial strains used in microbial susceptibility test were E. coli, S. aureus 29213 and B. subtilis 168. E. coli and S. aureus 29213 were obtained from the laboratory of the Hong Kong Polytechnic University. B. subtilis 168 was purchased from American Type Culture Collection (USA). The mammalian cell lines L929 (mouse peritoneal fibroblast), LCC6 (a wild type breast cancer cell line), LCC6MDR (P-gp over-expressed breast cancer cell line) were stocks in our department. Nutrient Agar, tryptone and yeast extract were purchased from Oxoid Limited (Nepean, Ontario, Canada). Luria-Bertani (LB) medium was prepared from 2 g tryptone, 1 g yeast extract, and 2 g sodium chloride in 200 ml deionized water and sterilized. Müller-Hinton broth (MHB), cation-adjusted Müller-Hinton broth (MHB) and trypticase soy broth (TSB) for microbial susceptibility test were purchased from Becton, Dickinson and Company (New Jersey, USA). A microplate reader (Bio-Rad Laboratories Model 680) is used to measure bacterial growth and cytotoxicity. An Olympus FSX100® Bio Imaging Navigator Microscope was used to observe the morphology of B. subtilis cell.
(§2) The minimum inhibitory concentration (MIC) of each compound was determined using microbroth dilution method according to the National Committee for Clinical Laboratory Standards (CLSI) guidelines. All Compounds were dissolved in DMSO and diluted in a serial two-fold manner. A single colony of bacterial strain on a TSB agar plate was inoculated in 5 mL MHB or CA-MHB. The bacterial cells were incubated at 37° C. until the optimal density (OD600) of the growing cells reached 1.0. The cells were then diluted to a final concentration of approximately 5×10^5 CFU/mL in a serial two-fold manner in a 96-well microtiter plate (Iwaki, Japan). Compound 3 and PC190723 were used as positive controls. […] Table 1 below summarizes the MIC of all synthesized compounds.

S. aureus 29213 = assay: as above; type: cell-based; conditions: Staphylococcus aureus, 29213; 18 hours at 37° C., >90% inhibition of bacterial growth
Description: as §1, §2

E. coli = assay: as above; type: cell-based; conditions: Escherichia coli; 18 hours at 37° C., >90% inhibition of bacterial growth
Description: as §1, §2

B. subtilis 168 cells = assay: Effects on the morphology of B. subtilis cells; type: cell-based; conditions: for average cell length of B. subtilis: compound at half of MIC (1.56 μM F332, 0.78 μM F361), untreated 3.5±0.7 μm; for average cell length of B. subtilis / lengthening of cell length of B. subtilis versus untreated: 4 hours; for lengthening of cell length of B. subtilis versus untreated: compound at half of MIC; for filamentation of B. subtilis 168 cells: sub-lethal concentrations
Procedure: The log-phase culture of B. subtilis was tested with the two compounds with a final concentration of half of MIC value. A 1% DMSO solution was used as the control.

S. aureus FtsZ [1] = target: T1, S. aureus FtsZ (Staphylococcus aureus, UniProt P0A031); assay: Light scattering assay (FtsZ polymerization); type: biochemical; conditions: S. aureus FtsZ 12 μM, 1 mM GTP, serial dilutions of compound
T1 construct: inferred from capture on a nickel chelating column and imidazole elution; made in house; host or cells: E. coli BL21
T1 sequence (P0A031 1-390): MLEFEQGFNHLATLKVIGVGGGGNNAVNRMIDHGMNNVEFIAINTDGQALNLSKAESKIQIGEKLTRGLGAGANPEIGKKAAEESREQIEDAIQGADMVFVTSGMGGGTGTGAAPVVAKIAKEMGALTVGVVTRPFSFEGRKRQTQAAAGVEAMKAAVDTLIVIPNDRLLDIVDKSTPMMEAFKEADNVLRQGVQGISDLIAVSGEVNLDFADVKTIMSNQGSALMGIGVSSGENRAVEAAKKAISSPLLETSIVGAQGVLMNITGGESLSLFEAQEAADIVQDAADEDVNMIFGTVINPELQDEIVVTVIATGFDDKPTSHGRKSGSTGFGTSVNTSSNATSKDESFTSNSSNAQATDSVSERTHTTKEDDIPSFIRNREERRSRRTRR
Procedure: Light scattering assay was used to determine the degree of FtsZ polymerization by measuring the 90° light scattering signal using a fluorescence spectrometer (Perkin-Elmer, USA). The excitation and emission wavelengths were set to 600 nm with a slit width of 5 nm. S. aureus FtsZ (12 μM) was incubated with serial dilutions of the compounds in 50 mM MOPS buffer (pH 6.8) at 25° C. for 10 minutes. The control contained 1% DMSO only. KCl (final concentration: 50 mM) and MgCl2 (final concentration: 10 mM) were then added to the mixture. The mixture was incubated at 37° C. for 8 minutes in order to establish a baseline. A final concentration of 1 mM GTP was added and the light scattering signal was measured for 1,500 seconds. The relative light scattering signals in experimental set-up were calculated with reference to the light scattering signal in control experiment. Three independent experiments were carried out for each compound concentration.

S. aureus FtsZ [2] = target: T1, S. aureus FtsZ; assay: GTPase activity assay; type: biochemical; conditions: FtsZ 7.5 μM, GTP 500 μM, 37° C. 30 minutes
Procedure: The GTPase activity of S. aureus FtsZ was determined in a 96-well microplate using a CytoPhos™ phosphate assay Biochem Kit™ (Cytoskeleton, USA) which measured the concentration of inorganic phosphate released during the hydrolysis of GTP. Recombinant S. aureus FtsZ (7.5 μM) was incubated with serial dilutions of the compounds in 50 mM MOPS buffer (pH 6.5) at 25° C. for 10 minutes. The control contained 1% DMSO only. KCl (final concentration: 200 mM) and MgCl2 (final concentration: 5 mM) were then added to the mixture. The mixture was incubated with GTP (final concentration: 500 μM) at 37° C. for 30 minutes. The insoluble polymer was removed by centrifugation at 13,500 rpm at room temperature for 1 minute. 80 μL supernatant was transferred to a well of a 96-well microplate and incubated with 120 μL of Cytophos reagent at room temperature for 10 minutes. The inorganic phosphate in the mixture was determined by measuring the absorbance at 650 nm in a 96-well microplate reader (BioRad 680). The results from the samples were reported with reference to the control. Three independent experiments were carried out for each compound concentration.

Row | Compound | MIC (B. subtilis 168) | MIC (S. aureus 29213) | MIC (E. coli) | average cell length of B. subtilis (B. subtilis 168 cells) | lengthening of cell length of B. subtilis versus untreated (B. subtilis 168 cells) | filamentation of B. subtilis 168 cells (B. subtilis 168 cells) | effect on light scattering signal of FtsZ assembly (polymerization) (S. aureus FtsZ [1]) | effect on GTPase activity of S. aureus FtsZ (S. aureus FtsZ [2])
1 | CCCCCCCCCNc1ccc(F)c(C(N)=O)c1F [Compound F332, 2,6-difluoro-3-(nonylamino)benzamide] | 3.13 µM (≈ 0.934 µg/mL) | 12.5 µM (≈ 3.73 µg/mL) | > 100 µM | 11.7±4.5 μm | three-fold lengthening | cause filamentation | inhibit the light scattering of FtsZ assembly | no significant change of the GTPase activity
2 | CCCCCCCCCN(C)c1ccc(F)c(C(N)=O)c1F [Compound F361, 2,6-difluoro-3-(methyl(nonyl)amino)benzamide] | 1.57 µM (≈ 0.49 µg/mL) | 3.13 µM (≈ 0.978 µg/mL) | > 100 µM | 21.1±1.8 μm | six-fold lengthening | cause filamentation | inhibit the light scattering of FtsZ assembly | no significant change of the GTPase activity
